What all share (format): functional
What all share (details): time 16-20 hrs

Experiment [1] has as its system Staphylococcus aureus. The experiment in a line: Antibacterial activity against Staphylococcus aureus ATCC25923 incubated for 16 to 20 hrs by broth microdilution method. For orientation: Broth dilution looks for growth in wells or tubes with falling amounts of substance.
Experiment [2] has as its system Stenotrophomonas maltophilia. Briefly: Antibacterial activity against Stenotrophomonas maltophilia ATCC17808 incubated for 16 to 20 hrs by broth microdilution method.
Experiment [3] has as its system Escherichia coli. The experiment in a line: Antibacterial activity against Escherichia coli ATCC25922 incubated for 16 to 20 hrs by broth microdilution method.
In the next experiment the test system is Enterococcus faecalis. The experiment in a line: Antibacterial activity against Enterococcus faecalis ATCC29212 incubated for 16 to 20 hrs by broth microdilution method.
The test system of experiment [4] is Escherichia coli. Briefly: Antibacterial activity against drug-resistant Escherichia coli clinical isolate 1322 incubated for 16 to 20 hrs by broth microdilution method.
Experiment [5] concerns Escherichia coli. The experiment in a line: Antibacterial activity against drug-resistant Escherichia coli clinical isolate 1333 incubated for 16 to 20 hrs by broth microdilution method.
The test system of experiment [6] is Staphylococcus aureus. The experiment in a line: Antibacterial activity against drug-resistant Staphylococcus aureus clinical isolate M20 incubated for 16 to 20 hrs by broth microdilution method.

≈ marks a conversion by molar mass, not a printed value. A value given as a limit tells only on which side of the number the result lay.

What is called MIC is the least concentration at which growth counts as inhibited. A high value points to weaker potency.

On to `CC[C@H]1OC(=O)C[C@@H](O)[C@H](C)[C@@H](O[C@@H]2O[C@H](C)[C@@H](O)[C@H](N(C)C)[C@H]2O)[C@@H](CCN(C)Cc2cn(-c3cnc4ccccc4c3)nn2)C[C@@H](C)C(=O)/C=C/C(C)=C/[C@@H]1CNCc1ccc(Br)cc1`, for which the MIC in the experiment on Staphylococcus aureus [1] was determined as 4 µg/mL (≈ 4.04 µM); in experiment [2] it was 8 µg/mL (≈ 8.09 µM); with Escherichia coli [3] it was 8 µg/mL (≈ 8.09 µM); against Enterococcus faecalis, 8 µg/mL (≈ 8.09 µM).

On to `CC[C@H]1OC(=O)C[C@@H](O)[C@H](C)[C@@H](O[C@@H]2O[C@H](C)[C@@H](O)[C@H](N(C)C)[C@H]2O)[C@@H](CC=O)C[C@@H](C)C(=O)/C=C/C(C)=C/[C@@H]1CO`, for which the MIC with Escherichia coli [4] was over 32 µg/mL; in the experiment on Staphylococcus aureus [1], 0.5 µg/mL (≈ 0.836 µM); in experiment [2], over 32 µg/mL; against Escherichia coli [3], over 32 µg/mL; in the experiment on Enterococcus faecalis, 0.5 µg/mL (≈ 0.836 µM); in the experiment with Escherichia coli [5] it was over 32 µg/mL. For the same compound, it took 1 µg/mL (≈ 1.67 µM) to inhibit growth in the experiment with Staphylococcus aureus [6] (MIC).

For the compound `CC[C@H]1OC(=O)C[C@@H](O)[C@H](C)[C@@H](O[C@@H]2O[C@H](C)[C@@H](O)[C@H](N(C)C)[C@H]2O)[C@@H](CCN(C)Cc2cn(-c3cnc4ccccc4c3)nn2)C[C@@H](C)C(=O)/C=C/C(C)=C/[C@@H]1CNCc1ccc(Cl)cc1`, the MIC against Staphylococcus aureus [1] came to 2 µg/mL (≈ 2.12 µM); in experiment [2], 4 µg/mL (≈ 4.23 µM); in the experiment on Escherichia coli [3], 1 µg/mL (≈ 1.06 µM); against Enterococcus faecalis it was 2 µg/mL (≈ 2.12 µM).

`CC[C@H]1OC(=O)C[C@@H](O)[C@H](C)[C@@H](O[C@@H]2O[C@H](C)[C@@H](O)[C@H](N(C)C)[C@H]2O)[C@@H](CCNCc2cn(-c3cnc4ccccc4c3)nn2)C[C@@H](C)C(=O)/C=C/C(C)=C/[C@@H]1CN(CC)Cc1ccccc1`: the MIC in the experiment on Staphylococcus aureus [1] was determined as 2 µg/mL (≈ 2.16 µM); in experiment [2], 1 µg/mL (≈ 1.08 µM); against Escherichia coli [3], 1 µg/mL (≈ 1.08 µM); in the experiment on Enterococcus faecalis, 2 µg/mL (≈ 2.16 µM).

`CCc1ccc(NC[C@H]2/C=C(C)/C=C/C(=O)[C@H](C)C[C@H](CCN(C)Cc3cn(-c4cnc5ccccc5c4)nn3)[C@H](O[C@@H]3O[C@H](C)[C@@H](O)[C@H](N(C)C)[C@H]3O)[C@@H](C)[C@H](O)CC(=O)O[C@@H]2CC)cc1`: the MIC (in the experiment with Staphylococcus aureus [1]; in experiment [2]; against Escherichia coli [3]; against Enterococcus faecalis) was 2 µg/mL (≈ 2.16 µM) in each case.

Consider `CC[C@H]1OC(=O)C[C@@H](O)[C@H](C)[C@@H](O[C@@H]2O[C@H](C)[C@@H](O)[C@H](N(C)C)[C@H]2O)[C@@H](CCN(C)Cc2cn(-c3cnc4ccccc4c3)nn2)C[C@@H](C)C(=O)/C=C/C(C)=C/[C@@H]1CN(Cc1ccccc1)C(C)C`, for which the MIC against Staphylococcus aureus [1] was found to be 8 µg/mL (≈ 8.4 µM); in experiment [2], 8 µg/mL (≈ 8.4 µM); against Escherichia coli [3], 16 µg/mL (≈ 16.8 µM); in the experiment with Enterococcus faecalis it was 16 µg/mL (≈ 16.8 µM).

In the case of `CC[C@H]1OC(=O)C[C@@H](O)[C@H](C)[C@@H](O[C@@H]2O[C@H](C)[C@@H](O)[C@H](N(C)C)[C@H]2O)[C@@H](CCNCc2cn(-c3cnc4ccccc4c3)nn2)C[C@@H](C)C(=O)/C=C/C(C)=C/[C@@H]1CNc1ccc(C)cc1`, the MIC was determined as 2 µg/mL (≈ 2.23 µM) against Staphylococcus aureus [1], 8 µg/mL (≈ 8.93 µM) in experiment [2], 2 µg/mL (≈ 2.23 µM) in the experiment on Escherichia coli [3] and 2 µg/mL (≈ 2.23 µM) against Enterococcus faecalis.

As to `CC[C@H]1OC(=O)C[C@@H](O)[C@H](C)[C@@H](O[C@@H]2O[C@H](C)[C@@H](O)[C@H](N(C)C)[C@H]2O)[C@@H](CCN(C)Cc2cn(-c3cnc4ccccc4c3)nn2)C[C@@H](C)C(=O)/C=C/C(C)=C/[C@@H]1CNc1ccc2ccccc2c1`, the MIC worked out at 4 µg/mL (≈ 4.23 µM) against Staphylococcus aureus [1], 4 µg/mL (≈ 4.23 µM) in experiment [2], 8 µg/mL (≈ 8.45 µM) with Escherichia coli [3] and 8 µg/mL (≈ 8.45 µM) against Enterococcus faecalis.

For `CC[C@H]1OC(=O)C[C@@H](O)[C@H](C)[C@@H](O[C@@H]2O[C@H](C)[C@@H](O)[C@H](N(C)C)[C@H]2O)[C@@H](CCN(C)Cc2cn(-c3cnc4ccccc4c3)nn2)C[C@@H](C)C(=O)/C=C/C(C)=C/[C@@H]1CNCc1ccccc1`, the MIC against Staphylococcus aureus [1] was 1 µg/mL (≈ 1.1 µM); in experiment [2] it was 2 µg/mL (≈ 2.2 µM); against Escherichia coli [3], 2 µg/mL (≈ 2.2 µM); against Enterococcus faecalis it was 4 µg/mL (≈ 4.39 µM).

For `CC[C@H]1OC(=O)C[C@@H](O)[C@H](C)[C@@H](O[C@@H]2O[C@H](C)[C@@H](O)[C@H](N(C)C)[C@H]2O)[C@@H](CCN2C[C@H](C)C[C@H](C)C2)C[C@@H](C)C(=O)/C=C/C(C)=C/[C@@H]1CO[C@@H]1O[C@H](C)[C@@H](O)[C@@H](OC)[C@H]1OC` [TILMICOSIN], the MIC with Staphylococcus aureus [1] is 1 µg/mL (≈ 1.15 µM); in experiment [2], over 32 µg/mL; against Escherichia coli [3], over 32 µg/mL; with Enterococcus faecalis it was 1 µg/mL (≈ 1.15 µM).

Consider `CC[C@H]1OC(=O)C[C@@H](O)[C@H](C)[C@@H](O[C@@H]2O[C@H](C)[C@@H](O)[C@H](N(C)C)[C@H]2O)[C@@H](CCN(C)Cc2cn(-c3cnc4ccccc4c3)nn2)C[C@@H](C)C(=O)/C=C/C(C)=C/[C@@H]1CN1CCCc2ccccc21`, for which the MIC came out at 2 µg/mL (≈ 2.14 µM) in the experiment with Staphylococcus aureus [1], 4 µg/mL (≈ 4.27 µM) in experiment [2], 2 µg/mL (≈ 2.14 µM) against Escherichia coli [3] and 2 µg/mL (≈ 2.14 µM) against Enterococcus faecalis.

The record behind these values is ChEMBL document CHEMBL6074711, “Design, Synthesis, and Activity Evaluation of C-23-Modified 5-O-Mycaminosyltylonolide Derivatives” (ACS Med Chem Lett, 2024).
